Measurements published in patent US20100305136A1, “QUINOLONE ANALOGS DERIVATIZED WITH SULFONIC ACID, SULFONATE OR SULFONAMIDE” (priority 2006, published 2010).

B1: 8762NT: human rDNA-derived DNA oligonucleotide CGGAGGGCGCGCGGGTCGGGGCGGCGGCGGCGGCGGCGGTGGCGGCGGCGGCGGGGGCGGCGGG (nucleic acid)
DNA: CGGAGGGCGCGCGGGTCGGGGCGGCGGCGGCGGCGGCGGTGGCGGCGGCGGCGGGGGCGGCGGG
modifications: chemistry not given here

Molecular target: T1, recombinant nucleolin (Homo sapiens, UniProt P19338)
T1 construct: without the N-terminal acidic stretches domain
Assay: Nucleolin/nucleic acid ligand interaction, gel retardation assay
Assay type: binding
Design: key: A “+” represents the weakest nucleolin affinity; a “++++” represents the strongest nucleolin affinity
Conditions: relative affinity of each nucleic acid ligand for nucleolin; nucleolin ~250 nM, 32P-labeled ligand 10 or 250 nM, 30 minutes at room temperature
Procedure: The following assays can be used to assess the effects of compounds on interactions between nucleolin and nucleic acid ligands capable of forming quadruplex (QP) and hairpin (HP) secondary structures. Nucleic acid ligands tested were a cMyc QP DNA having nucleotide sequence 5′-[…]-3′ and a HP pre-rRNA region to which nucleolin binds, having the sequence 5′-[…]-3′. In the assays, recombinant nucleolin (˜250 nM), which has been fused to maltose binding protein, and has the sequence under accession number NM_005381 without the N-terminal acidic stretches domain, is incubated with each of the two ^32P-labeled nucleic acid ligands (10 or 250 nM). Nucleolin and the nucleic acid ligand are incubated in the presence or absence of a test compound 7 in an incubation buffer (12.5 mM Tris, pH 7.6, 60 mM KCl, 1 mM MgCl2, 0.1 mM EDTA, 1 mM DTT, 5% glycerol, 0.1 mg/ml BSA) for 30 minutes at room temperature.
The resulting complexes are separated on a 6% DNA retardation gel using 0.5× TBE with 20 mM KCl as a running buffer. The assay also can be conducted using nucleic acid ligands derived from human ribosomal DNA, whereby one can identify a compound that selectively modulates formation of a nucleolin/nucleic acid complex that depends on the conformation of the nucleic acid. Sequences of suitable nucleic acids are shown in the preceding example. […] A “+” represents the weakest nucleolin affinity and a “++++” represents the strongest nucleolin affinity. […] Using nucleic acids such as these having known conformational properties, one can identify a compound such as the compounds described herein that selectively interferes with binding of nucleolin to a particular quadruplex structure.

T1 sequence (P19338 284-710 limits assumed): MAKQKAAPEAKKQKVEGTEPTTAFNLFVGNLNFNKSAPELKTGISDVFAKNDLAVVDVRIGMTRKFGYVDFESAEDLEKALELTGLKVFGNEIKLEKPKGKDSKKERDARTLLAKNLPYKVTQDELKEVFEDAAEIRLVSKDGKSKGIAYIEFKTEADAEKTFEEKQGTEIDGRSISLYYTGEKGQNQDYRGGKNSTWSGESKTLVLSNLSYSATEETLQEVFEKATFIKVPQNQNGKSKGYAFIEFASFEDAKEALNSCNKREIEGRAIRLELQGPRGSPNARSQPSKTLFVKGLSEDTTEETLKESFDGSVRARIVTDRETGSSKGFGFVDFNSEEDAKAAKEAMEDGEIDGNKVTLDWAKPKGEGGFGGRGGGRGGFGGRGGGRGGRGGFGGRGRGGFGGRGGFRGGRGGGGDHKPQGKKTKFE

Molecule | Affinity for Nucleolin
11028NT: human rDNA-derived DNA oligonucleotide GGGGCGCGGCGGGGGGAGAAGGGTCGGGGCGGCAGGGG (chemistry not given here) [Compound 11028NT] | +
6183NT: human rDNA-derived DNA oligonucleotide GGGTCGGGGGCGGTGGTGGGCCCGCGGGGG (chemistry not given here) [Compound 6183NT] | +
7733T: human rDNA-derived DNA oligonucleotide GGGAGGGGCACGGGCCGGGGGCGGGACGGG (chemistry not given here) [Compound 7733T] | +
8749NT: human rDNA-derived DNA oligonucleotide GGGAGGGCGCGCGGGTCGGGG (chemistry not given here) [Compound 8749NT] | +
8511NT: human rDNA-derived DNA oligonucleotide GGGGGTGGGCGGGCGGGGCCGGGGGTGGG (chemistry not given here) [Compound 8511NT] | ++++
B1 | ++++
